Assay results taken from patent publication US20180200326A1, “ANG-(1-7) AND DERIVATIVE OLIGOPEPTIDES FOR THE TREATMENT OF TRAUMATIC BRAIN INJURY AND OTHER COGNITIVE IMPAIRMENTS” (Arizona Board Of Regents On Behalf Of The University of …, priority 2017, published 2018).
Read-outs that look alike come from different tables or passages of the source. Peptide text beside a SMILES is read from it. * marks the point of attachment. X2 = OC[C@H]1O[C@@H](O[C@H]2[C@H](O)[C@@H](O)C(*)O[C@@H]2CO)[C@H](O)[C@@H](O)[C@H]1O; X1 = OC[C@H]1OC(*)[C@H](O)[C@@H](O)[C@@H]1O

How the values were obtained:
[1] = system: human umbilical vascular endothelial cells (HUVEC); assay: NO production assay (DAF-FM fluorescence, microplate reader); assay type: cell-based; conditions: 5 minutes exposure; for NO over control levels (relative peak fluorescence intensity): normalized to control fluorescence
From the text: (§1) To isolate primary hippocampal CA1 neuronal cells, whole brain was removed from neonatal rat pups (1-2 day old) and the cortices dissected away. The hippocampus was isolated and the CA1 field was excised and placed in buffer. After gentle disruption in digestion buffer, the cells were counted, placed in culture media, and plated in a 96-well format coated with poly-d-lysine. At the time of plating, cells were approximately at 50% density and were allowed to culture to 70-80% density before starting the assay. Commercially available HUVEC (Life Technologies/Thermo Fisher) was thawed and plated (5000-10,000 cells/well) in a 96-well format coated with gelatin. HUVEC cells were allowed to culture overnight before starting the assay.
As a screen for mechanisms of action of oligopeptides of the invention, the ability to increase NO production of three oligopeptides of the invention (PN-A3, PN-A4 and PN-A5) were characterized and compared to native Ang-(1-7). Human umbilical vascular endothelial cells (HUVEC) culture plates received fluorescence reaction buffer (0.2 M phosphate buffer, pH 7, 1 mM EDTA, 0.1% glucose) containing diaminofluorescein-FM diacetate (DAF-FM, 1 μM) to measure real-time NO production. Time-resolved (10 minutes) fluorescent intensity was detected using a BioTek Synergy 2 microplate reader with excitation at 485 nm and emission at 535 nm. DAF-FM is a sensitive flourometric derivative for the selective detection of NO in live cells.
Values were normalized to control fluorescence.

[2] = system: human umbilical vascular endothelial cells (HUVEC); assay: xCELLigence RTCA cell activation (cell impedance); assay type: cell-based; conditions: average of 4 wells, normalized to CI at compound addition
From the text: as §1
The xCELLigence system Real-Time Cell Analyzer (RTCA), developed by Roche Applied Science, uses microelectronic biosensor technology to do dynamic, real-time, label-free, and non-invasive analysis of cellular events including G-protein receptor activation of cells. The RTCA analysis was utilized to measure the potency and relative ability of oligopeptides of the invention and native Ang-(1-7) to activate human umbilical vascular endothelial cells (HUVEC) in culture. Following uniform cellular adherence based on a linear increase in cell impedance (CI), HUVECs were treated with Ang-(1-7) and oligopeptides of the invention. Each trace of the CI over time in FIG. 1 represents the average of 4 wells normalized to CI at the time of compound addition.

[3] = In Vitro Serum Half-Life Assay; conditions: mouse
Experimental: (§3) Aliquots were withdrawn at the indicated time intervals and the peptide concentration was determined using HPLC-MS and expressed as a percentage of the initial concentration.

[4] = mouse, serum
Experimental: as §3

[5] = system: CHF mice (object recognition memory impairment); assay: Novel Object Recognition (NOR) in congestive heart failure mice; assay type: in vivo, mouse; conditions: 1 mg/kg/day subcutaneous, approximately 21 days, n=11, DRatio=(t novel−t familiar)/(t novel+t familiar), CHF-saline M=−0.05, Sham-saline M=+0.52
Experimental: (§2) A total of 33, male C57Bl/6J adult mice (Harlan, 8-10 weeks old) were used. Mice were randomly assigned to either the sham (n=12) or congestive heart failure (CHF) group (n=21). Experimental groups are described as follows: sham+saline, CHF+saline, CHF+PN-A5. All mice prior to surgery were weighed and anesthetized. For the CHF mice, MI was induced by ligation of the left coronary artery (LCA). Under anesthesia (2.5% isoflurane in a mixture of air and O2) a thoracotomy was performed at the fourth left intercostal space and the LCA permanently ligated to induce a myocardial infarction (MI). […]
The apparatus consisted of an evenly illuminated Plexiglas box (12 cm×12 cm×12 cm) placed on a table inside an isolated observation room. […] The mouse behavior and exploration of objects was recorded with a digital camera. […]
The novel object recognition task included 3 phases: habituation phase, familiarization phase, and test phase. […] Exploration was scored by an observer blind to the mouse's surgical group (CHF vs. Sham). […]
Discrimination ratios were calculated from the time spent exploring the novel object minus time spent exploring the familiar object during the test phase divided by the total exploration time. […] Data were analyzed from first 2 minutes of ‘test phase’. […]

[6] = In vivo serum and CSF concentration after subcutaneous injection; conditions: naïve mice; 10 mg/kg subcutaneous; microdialysis probe; corrected for basal CSF levels
Experimental: (§4) The peptides (10 mg/kg) or vehicle control were individually subcutaneously injected into naïve mice. Serum concentrations were determined every 10 minutes by HPLC-MS using a 20-30 μl blood sample. […] CSF samples were simultaneously withdrawn from the same animals via a microdialysis probe and assayed for the peptide concentration and corrected for basal CSF levels.

[7] = system: CHF mice (spatial memory impairment); assay: Morris water task (spatial memory) in congestive heart failure mice; assay type: in vivo, mouse; conditions: 1 mg/kg/day subcutaneous, approximately 25 days, day 3 of Morris swim task, n=11, CHF-saline M=32.5
Experimental: as §2, with “(MI). Occlusion of the LCA was confirmed by observing blanching, a slight change in color of the anterior wall of the left ventricle downstream of the ligature. Sham mice underwent the same procedure with the exception of ligating the LCA.” for “(MI).”
During the spatial version of the Morris water task, all animals were given 6 training trials per day over 4 consecutive days. […] Performance on the swim task was analyzed with a commercial software application (ANY-maze, Wood Dale, Ill.). Because different release locations and differences in swimming velocity produce variability in the latency to reach the escape platform, a corrected integrated path length (CIPL) was calculated to ensure comparability of mice performance across different release locations. […]

[8] = mouse, in vivo, sc, 10 mg/kg
Experimental: as §4

in vivo = conditions: mouse, sc, 10 mg/kg
Experimental: as §4

Mas receptor (MasR) = molecular target: T1, Mas receptor (MasR) (Homo sapiens, UniProt P04201); conditions: binding to GPCR Mas receptor (MasR); cited from earlier work
T1 sequence (P04201 1-325): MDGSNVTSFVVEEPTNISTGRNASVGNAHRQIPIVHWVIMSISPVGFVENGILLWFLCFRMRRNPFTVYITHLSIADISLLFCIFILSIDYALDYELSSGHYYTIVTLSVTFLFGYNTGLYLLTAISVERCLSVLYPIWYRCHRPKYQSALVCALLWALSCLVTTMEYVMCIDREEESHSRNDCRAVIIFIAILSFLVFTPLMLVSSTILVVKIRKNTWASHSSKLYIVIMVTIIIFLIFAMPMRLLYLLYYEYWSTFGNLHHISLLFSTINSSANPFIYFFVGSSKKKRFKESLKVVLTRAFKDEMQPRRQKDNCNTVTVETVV

Compound	NO over control levels (relative peak fluorescence intensity) [1]	increase in CI (cell impedance) over the native Ang-(1-7) ([2]; 10 nM)	increase in CI (cell impedance) over the native Ang-(1-7) ([2]; 100 nM)	half-life [4]	other results
PN-A3: native Ang(1-7) sequence with added C-terminal Ser8, glucosylated and C-terminally amidated (NH2); SEQ ID NO: 9 (DRVYIHPS; glucosylated, C-terminal amide; (8)..(8) Glycosylated; (8)..(8) Carboxy terminal NH2; See specification as filed for detailed description of substitutions and preferred embodiments)	significant elevation	~2 fold	~2 fold		
CC[C@H](C)[C@H](NC(=O)[C@H](Cc1ccc(O)cc1)NC(=O)[C@@H](NC(=O)[C@H](CCCNC(=N)N)NC(=O)[C@@H](N)CC(=O)O)C(C)C)C(=O)N[C@@H](Cc1c[nH]cn1)C(=O)N[C@@H](COC1O[C@H](CO)[C@@H](O[C@@H]2O[C@H](CO)[C@H](O)[C@H](O)[C@H]2O)[C@H](O)[C@H]1O)C(N)=O (stereo partly drawn) [PN-A6, Ang 1-6-Ser(OLac)-NH2] (H-DRVYIHS(X2)-NH2)					half-life [3]: 348 min
CC[C@H](C)[C@H](NC(=O)[C@H](Cc1ccc(O)cc1)NC(=O)[C@@H](NC(=O)[C@H](CCCNC(=N)N)NC(=O)[C@@H](N)CC(=O)O)C(C)C)C(=O)N[C@@H](Cc1c[nH]cn1)C(=O)N1CCC[C@H]1C(N)=O [PN-A2, Ang 1-7-NH2]				21 min	
PN-A4: native Ang(1-7) sequence with added C-terminal Ser8, lactosylated and C-terminally amidated (NH2); SEQ ID NO: 9 (DRVYIHPS; lactosylated, C-terminal amide; (8)..(8) Glycosylated; (8)..(8) Carboxy terminal NH2; See specification as filed for detailed description of substitutions and preferred embodiments)	significant elevation		~2 fold		
CC[C@H](C)[C@H](NC(=O)[C@H](Cc1ccc(O)cc1)NC(=O)[C@@H](NC(=O)[C@H](CCCNC(=N)N)NC(=O)[C@@H](N)CC(=O)O)C(C)C)C(=O)N[C@@H](Cc1c[nH]cn1)C(=O)N[C@@H](COC1O[C@H](CO)[C@@H](O)[C@H](O)[C@H]1O)C(N)=O (stereo partly drawn) [PN-A5, Ang 1-6-Ser(OGlc)-NH2] (H-DRVYIHS(X1)-NH2; N-terminus assumed)	significant elevation	~2 fold	~2 fold		discrimination ratio in NOR test (mean M) [5]: +0.38; maximum CSF concentration [6]: about 400 nM; NO production compared with native Ang-(1-7) ([1]; p<0.05): significantly enhancing NO production; corrected integrated path length (CIPL), mean M [7]: 23.5
CC[C@H](C)[C@H](NC(=O)[C@H](Cc1ccc(O)cc1)NC(=O)[C@@H](NC(=O)[C@H](CCCNC(=N)N)NC(=O)[C@@H](N)CC(=O)O)C(C)C)C(=O)N[C@@H](Cc1c[nH]cn1)C(=O)N1CCC[C@H]1C(=O)O [native Ang-(1-7), Asp-Arg-Val-Tyr-Ile-His-Pro]				14 min	maximum CSF concentration [8]: about 50 nM; Cmax (in vivo): ~200 nM; Kd (Mas receptor (MasR)): 0.83 nM
